Like-named read-outs stand apart in the source and are kept apart here. Bridge positions count the residues as written; N and C are the ends. Ends that are not written are not given here. Peptide text beside a SMILES is read from it.
Legend:
IDE [1] = biological target: T1, IDE (Homo sapiens, UniProt P14735); assay: biochemical; conditions: for IC50 <500 uM?: initial test at 500 uM; for IC50: FRET1, listed in Table 1, read-out: IC50, summary of results of the initial test; for Ki: substrate FRET1 5 μM, Ki from IC50 with the Cheng-Prusoff equation, read-out: Ki FRET1
T1 construct: made in house; host or cells: bacteria
T1 sequence (P14735 1-1019): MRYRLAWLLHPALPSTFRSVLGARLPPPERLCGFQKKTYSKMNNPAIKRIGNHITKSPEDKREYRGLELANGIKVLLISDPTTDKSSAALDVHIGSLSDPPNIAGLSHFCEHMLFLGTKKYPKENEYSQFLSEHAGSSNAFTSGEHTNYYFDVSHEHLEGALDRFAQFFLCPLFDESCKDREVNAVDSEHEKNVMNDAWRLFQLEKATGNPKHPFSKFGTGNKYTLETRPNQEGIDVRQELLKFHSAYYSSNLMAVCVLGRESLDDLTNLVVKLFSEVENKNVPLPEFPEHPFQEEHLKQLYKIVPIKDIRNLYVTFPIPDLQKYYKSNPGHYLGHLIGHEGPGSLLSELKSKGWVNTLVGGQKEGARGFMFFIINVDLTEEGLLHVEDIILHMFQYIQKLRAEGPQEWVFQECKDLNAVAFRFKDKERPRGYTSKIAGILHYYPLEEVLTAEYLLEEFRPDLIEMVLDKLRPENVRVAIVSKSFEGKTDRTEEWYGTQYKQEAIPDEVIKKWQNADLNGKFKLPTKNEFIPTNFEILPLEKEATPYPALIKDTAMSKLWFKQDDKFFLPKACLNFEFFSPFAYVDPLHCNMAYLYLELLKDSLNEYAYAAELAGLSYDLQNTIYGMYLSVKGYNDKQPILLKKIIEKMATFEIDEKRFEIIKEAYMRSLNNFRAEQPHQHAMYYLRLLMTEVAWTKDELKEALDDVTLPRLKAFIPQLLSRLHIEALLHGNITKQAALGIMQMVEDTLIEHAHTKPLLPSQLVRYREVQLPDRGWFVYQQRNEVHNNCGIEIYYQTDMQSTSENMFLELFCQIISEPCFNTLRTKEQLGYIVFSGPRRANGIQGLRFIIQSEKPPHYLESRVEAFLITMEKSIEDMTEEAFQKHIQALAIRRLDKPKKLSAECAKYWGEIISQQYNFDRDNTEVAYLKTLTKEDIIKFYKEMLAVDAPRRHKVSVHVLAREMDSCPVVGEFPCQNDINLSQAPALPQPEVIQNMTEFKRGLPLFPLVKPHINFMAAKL
Protocol: The six selected peptide sequences (C7C-1, C7C-2, 12–1, 12–2, 12–3 and 12–4) were synthesized, together with a variety of modifications, yielding a total of 25 peptides (Table 1). […] Other modifications included N-terminal acetylation and C-terminal amidation, included to mimic the charge state of the peptides when incorporated in the phage coat protein (Table 1).
IDE activity was quantified by monitoring the degradation of Mca-[…](Dnp) (FRET1, 5 μM), fluoresceinated and biotinylated amyloid ß-protein (FAßB; 500 nM) or recombinant human insulin (50 nM) in PBS supplemented with 0.05% BSA. […] In vitro activity assays incorporated recombinant human IDE (1 nM) purified from bacteria. For quantitation of insulin degradation in primary murine skin fibroblasts, cells (1 x 10^5/well) were plated in 96-well plates and maintained in DMEM supplemented with 10% fetal bovine serum (FBS), 2mM glutamine, penicillin and streptomycin. After addition of insulin (10 nM or 100 nM), samples of conditioned medium were removed daily and quickly frozen, then insulin levels were quantified in parallel by ELISA according to manufacturer’s recommendations (Crystal Chem, Downers Grove, IL, USA). Assessment of the activity of P12-3A against a variety of matrix-metalloproteases was conducted using the Matrix Metalloproteinase (MMP) Inhibitor Profiling Kit, Fluorometric RED (Enzo Life Sciences, Inc., Farmingdale, NY, USA) according to manufacturer’s recommendations using the broad-spectrum MMP inhibitor, NNGH, as a positive control.

IDE [2] = biological target: T1, IDE; assay: biochemical; conditions: for IC50: from initial test at 10 uM using insulin (100 nM), read-out: IC50 (summary of results, listed in Table 1); for Ki: substrate recombinant human insulin 50 nM, Ki from IC50 with the Cheng-Prusoff equation
Excerpt: The six selected peptide sequences (C7C-1, C7C-2, 12–1, 12–2, 12–3 and 12–4) were synthesized, together with a variety of modifications, yielding a total of 25 peptides (Table 1). For the 12-mer peptides, we synthesized variants of the parent peptides truncated at one or both termini, to test whether the entire sequence was necessary or not, in the hope that shorter, and thus less expensive, sequences might be effective. Other modifications included N-terminal acetylation and C-terminal amidation, included to mimic the charge state of the peptides when incorporated in the phage coat protein (Table 1). To assess the extent to which these peptide sequences inhibit IDE, we quantified their potency in protease activity assays using recombinant human IDE and two different substrates: FRET1, a fluorogenic peptide, and recombinant human insulin.
IDE activity was quantified by monitoring the degradation of Mca-[…](Dnp) (FRET1, 5 μM), fluoresceinated and biotinylated amyloid ß-protein (FAßB; 500 nM) or recombinant human insulin (50 nM) in PBS supplemented with 0.05% BSA. FRET1 degradation was measured by changes in fluorescence (λex = 340 nm, λem = 420 nm); FAßB degradation was monitored by fluorescence polarization (λex = 488 nm, λem = 525 nm), as described; and insulin degradation was quantified by ELISA. In vitro activity assays incorporated recombinant human IDE (1 nM) purified from bacteria. For quantitation of insulin degradation in primary murine skin fibroblasts, cells (1 x 10^5/well) were plated in 96-well plates and maintained in DMEM supplemented with 10% fetal bovine serum (FBS), 2mM glutamine, penicillin and streptomycin. After addition of insulin (10 nM or 100 nM), samples of conditioned medium were removed daily and quickly frozen, then insulin levels were quantified in parallel by ELISA according to manufacturer’s recommendations (Crystal Chem, Downers Grove, IL, USA). Assessment of the activity of P12-3A against a variety of matrix-metalloproteases was conducted using the Matrix Metalloproteinase (MMP) Inhibitor Profiling Kit, Fluorometric RED (Enzo Life Sciences, Inc., Farmingdale, NY, USA) according to manufacturer’s recommendations using the broad-spectrum MMP inhibitor, NNGH, as a positive control.

[3] = initial test, percent of initial velocity relative to DMSO-only controls, N 4, read-out: Percent activity at 500 uM, Mean
[4] = judged as IC50 <100 uM?, N 4, read-out: Percent activity at 500 uM, Mean
[5] = judged as IC50 <100 uM?, individual replicates, read-out: Percent activity at 500 uM, Replicate 1-4
[6] = initial test, percent of initial velocity relative to DMSO-only controls, individual replicates, read-out: Percent activity at 500 uM, Replicate 1-4

| Compound | IC50 <500 uM? (IDE [1]) | remaining activity at 500 µM (IDE [1]; [3]) [%] | remaining activity at 500 µM (IDE [1]; [4]) [%] | remaining activity at 500 µM (IDE [1]; [5]) [%] | IC50 <10 uM? (IDE [2]; initial test at 10 uM using insulin (100 nM)) | remaining activity at 0.016 µM (IDE [2]; insulin ELISA, Cmpd 0.016 uM, Runs 1-3, read-out: Percent Activity (normalized source data)) [%] | remaining activity at 0.08 µM (IDE [2]; insulin ELISA, Cmpd 0.08 uM, Runs 1-3, read-out: Percent Activity (normalized source data)) [%] | remaining activity at 0.4 µM (IDE [2]; insulin ELISA, Cmpd 0.4 uM, Runs 1-3, read-out: Percent Activity (normalized source data)) [%] | remaining activity at 2 µM (IDE [2]; insulin ELISA, Cmpd 2 uM, Runs 1-3, read-out: Percent Activity (normalized source data)) [%] | remaining activity at 10 µM (IDE [2]; insulin ELISA, Cmpd 10 uM, Runs 1-3, read-out: Percent Activity (normalized source data)) [%] | remaining activity at 500 µM (IDE [1]; [6]) [%] | IC50 (IDE [1]) [µM] | Ki (IDE [1]) [µM] | IC50 (IDE [2]) [µM] | Ki (IDE [2]) [µM] |
| --- | --- | --- | --- | --- | --- | --- | --- | --- | --- | --- | --- | --- | --- | --- | --- |
| CC[C@H](C)[C@@H]1NC(=O)[C@H](CO)NC(=O)[C@H](Cc2c[nH]c3ccccc23)NC(=O)[C@H](Cc2c[nH]c3ccccc23)NC(=O)[C@H](CO)NC(=O)[C@@H](NC(=O)[C@H](C)N)CSSC[C@@H](C(=O)NCC(=O)O)NC(=O)[C@H](CC(C)C)NC(=O)[C@H](Cc2c[nH]cn2)NC1=O [C7C-1] (H-ACSWWSIHLCG-OH; disulfide 2-10 (inferred)) | YES | 11.4 | 44.2 | 52 | YES | 75 | 93.7 | 66.1 | 73.9 | 51.8 |  |  |  |  |  |
| CC(C)C[C@@H]1NC(=O)[C@H](Cc2c[nH]cn2)NC(=O)CNC(=O)[C@H](C)NC(=O)[C@H](CC(N)=O)NC(=O)[C@@H](NC(=O)[C@H](C)N)CSSC[C@@H](C(=O)NCC(N)=O)NC(=O)[C@H](CCC(N)=O)NC(=O)[C@H](CO)NC1=O [C7C-2A] (H-ACNAGHLSQCG-NH2; disulfide 2-10 (inferred)) |  | 94.1 | 92.7 | 92.5 |  |  |  |  |  |  |  |  |  |  |  |
| CC(C)C[C@@H]1NC(=O)[C@H](Cc2c[nH]cn2)NC(=O)CNC(=O)[C@H](C)NC(=O)[C@H](CC(N)=O)NC(=O)[C@@H](NC(=O)[C@H](C)N)CSSC[C@@H](C(=O)NCC(=O)O)NC(=O)[C@H](CCC(N)=O)NC(=O)[C@H](CO)NC1=O [C7C-2] (H-ACNAGHLSQCG-OH; disulfide 2-10 (inferred)) |  | 54 | 72.8 | 76.4 |  |  |  |  |  |  | 48.4 |  |  |  |  |
| CC[C@H](C)[C@@H]1NC(=O)[C@H](CO)NC(=O)[C@H](Cc2c[nH]c3ccccc23)NC(=O)[C@H](Cc2c[nH]c3ccccc23)NC(=O)[C@H](CO)NC(=O)[C@@H](NC(=O)[C@H](C)N)CSSC[C@@H](C(=O)NCC(=O)NCC(=O)NCC(=O)O)NC(=O)[C@H](CC(C)C)NC(=O)[C@H](Cc2c[nH]cn2)NC1=O [C7C-1B] (H-ACSWWSIHLCGGG-OH; disulfide 2-10 (inferred)) | YES | 30.4 | 56.8 | 63.2 |  |  |  |  |  |  | 30.3 |  |  |  |  |
| LNFPMPSRPHSS-NH2 [P12-2A] | YES |  |  | 58.5 |  |  |  |  |  |  | 31.8 | > 100 | > 100 | > 10 | > 10 |
| CC[C@H](C)[C@@H]1NC(=O)[C@H](CO)NC(=O)[C@H](Cc2c[nH]c3ccccc23)NC(=O)[C@H](Cc2c[nH]c3ccccc23)NC(=O)[C@H](CO)NC(=O)[C@@H](NC(=O)[C@H](C)N)CSSC[C@@H](C(=O)NCC(N)=O)NC(=O)[C@H](CC(C)C)NC(=O)[C@H](Cc2c[nH]cn2)NC1=O [C7C-1A] (H-ACSWWSIHLCG-NH2; disulfide 2-10 (inferred)) | YES | 22.5 | 59.5 | 56.6 |  |  |  |  |  |  | 25.1 |  |  |  |  |
| LNFPMPSR-NH2 [P12-2B] |  |  |  |  |  |  |  |  |  |  | 81.3 | > 500 | > 500 | > 10 | > 10 |

Results, then the compound that gave them:

| IC50 <500 uM? (IDE [1]) | remaining activity at 500 µM (IDE [1]; [3]) [%] | remaining activity at 500 µM (IDE [1]; [4]) [%] | remaining activity at 500 µM (IDE [1]; [5]) [%] | IC50 <10 uM? (IDE [2]; initial test at 10 uM using insulin (100 nM)) | remaining activity at 0.016 µM (IDE [2]; insulin ELISA, Cmpd 0.016 uM, Runs 1-3, read-out: Percent Activity (normalized source data)) [%] | remaining activity at 0.08 µM (IDE [2]; insulin ELISA, Cmpd 0.08 uM, Runs 1-3, read-out: Percent Activity (normalized source data)) [%] | remaining activity at 0.4 µM (IDE [2]; insulin ELISA, Cmpd 0.4 uM, Runs 1-3, read-out: Percent Activity (normalized source data)) [%] | remaining activity at 2 µM (IDE [2]; insulin ELISA, Cmpd 2 uM, Runs 1-3, read-out: Percent Activity (normalized source data)) [%] | remaining activity at 10 µM (IDE [2]; insulin ELISA, Cmpd 10 uM, Runs 1-3, read-out: Percent Activity (normalized source data)) [%] | remaining activity at 500 µM (IDE [1]; [6]) [%] | IC50 (IDE [1]) [µM] | Ki (IDE [1]) [µM] | IC50 (IDE [2]) [µM] | Ki (IDE [2]) [µM] | Compound |
| --- | --- | --- | --- | --- | --- | --- | --- | --- | --- | --- | --- | --- | --- | --- | --- |
|  |  |  | 88.8 |  |  |  |  |  |  |  | > 500 | > 500 | > 10 | > 10 | Ac-FPMPSRPH-NH2 [P12-2D] |
|  |  |  | 91.1 |  |  |  |  |  |  | 74.3 | > 500 | ≥ 500 | > 10 | ≥ 10 | Ac-PISGKFFQ-NH2 [P12-4D] |
|  |  |  | 77.6 |  |  |  |  |  |  | 59.7 | > 500 | ≥ 500 | > 10 | ≥ 10 | Ac-SGKFFQRF [P12-4C] |
|  |  |  | 86.6 |  |  |  |  |  |  | 76.6 | > 500 | ≥ 500 | > 10 | ≥ 10 | WSPISGKF-NH2 [P12-4B] |
|  |  |  | 72.7 |  |  |  |  |  |  |  | > 500 | > 500 | > 10 | > 10 | Ac-MPSRPHSS [P12-2C] |
| YES |  |  | 59.9 |  |  |  |  |  |  |  | > 100 | > 100 | > 10 | > 10 | LNFPMPSRPHSS [P12-2] |
